Assay results as given in patent EP4818158A1, “BIARYL COMPOUND” (Kissei Pharmaceutical Co., Ltd., priority 2023, dated 2025).
Like-named read-outs stand apart in the source and are kept apart here.

Columns and labels:
human TSHR = biological target: T1, human TSHR (Homo sapiens, UniProt P16473); assay: Antagonist activity using TSH-induced cAMP generation in human TSHR-stably expressing CHO cells; type: cell-based; details: human TSH 50 ng/mL
T1 construct: expressed in transfected cells
Protocol: Measurement of antagonist activity using TSH-induced cAMP generation in human TSHR-stably expressing CHO cells as an indicator
The gene sequence (reference number: NM_000369.2) of a human TSHR was inserted into multiple cloning sites of pcDNA3.1 (+). Prepared plasmid vectors were introduced into CHO cells using a lipofection method, and human TSHR-stably expressing CHO cells were established. Obtained cells were seeded in a 96-well poly-D-lysine-coated plate at 5 × 10^4 cells/well and cultured in an F12 culture medium containing 10%FBS, 400 µg/mL of G418, 50 U/mL of penicillin, and 50 µg/mL of streptomycin under conditions of 37°C and 5% CO2 for one day. After the culture medium was removed, the cells were washed twice with 100 µL of an assay buffer solution (Hanks' Balanced Salt Solution containing 20 mM HEPES and 1 mM IBMX) per well. 30 µL of a test compound-containing assay buffer solution was added to the well and incubated at room temperature for 15 minutes. Next, 30 µL of an assay buffer solution containing human TSH (final concentration: 50 ng/mL, R&D Systems, Inc.) was added thereto and incubated at 37°C for one hour. A supernatant was removed, a Lysis and Detection Buffer 2(Cisbio) was added thereto, and the mixture was incubated at room temperature for one hour to prepare a cell lysate. According to the instruction manual of a cAMP Gs HiRange kit (Cisbio), the cell lysate, d2-labeled cAMP, and anti-cAMP Europium Cryptate labeled antibodies (Cisbio) were reacted together in a 384-well white microplate. Next, fluorescence intensity ratios (measurement wavelengths: 665 nm/620 nm) were measured using a multi-plate reader (PHERAstar FSX, BMG LABTECH, Japan). The fluorescence intensity ratio of each sample was converted to a cAMP content using a standard curve. The cAMP content was converted as a percentage of the control value to calculate a cAMP generation rate. The cAMP generation rates were plotted against the test compound concentrations using Prism (Graph Pad Software Inc.) to calculate IC50 values. The IC50's of the individual test compounds are shown in the above tables. In the tables, IC50 < 0.3 µM was denoted as A, and 0.3 µM ≤ IC50 < 30 µM was denoted as B. Cases where the IC50 values were not calculated for test compounds from which activity was recognized are denoted as C.

TSHR = biological target: T2, TSHR (Mus musculus, UniProt P47750); details: cited from earlier work
T2 construct: host or cells: mice in vivo (endogenous thyroid TSHR)
T2 sequence (P47750 22-764): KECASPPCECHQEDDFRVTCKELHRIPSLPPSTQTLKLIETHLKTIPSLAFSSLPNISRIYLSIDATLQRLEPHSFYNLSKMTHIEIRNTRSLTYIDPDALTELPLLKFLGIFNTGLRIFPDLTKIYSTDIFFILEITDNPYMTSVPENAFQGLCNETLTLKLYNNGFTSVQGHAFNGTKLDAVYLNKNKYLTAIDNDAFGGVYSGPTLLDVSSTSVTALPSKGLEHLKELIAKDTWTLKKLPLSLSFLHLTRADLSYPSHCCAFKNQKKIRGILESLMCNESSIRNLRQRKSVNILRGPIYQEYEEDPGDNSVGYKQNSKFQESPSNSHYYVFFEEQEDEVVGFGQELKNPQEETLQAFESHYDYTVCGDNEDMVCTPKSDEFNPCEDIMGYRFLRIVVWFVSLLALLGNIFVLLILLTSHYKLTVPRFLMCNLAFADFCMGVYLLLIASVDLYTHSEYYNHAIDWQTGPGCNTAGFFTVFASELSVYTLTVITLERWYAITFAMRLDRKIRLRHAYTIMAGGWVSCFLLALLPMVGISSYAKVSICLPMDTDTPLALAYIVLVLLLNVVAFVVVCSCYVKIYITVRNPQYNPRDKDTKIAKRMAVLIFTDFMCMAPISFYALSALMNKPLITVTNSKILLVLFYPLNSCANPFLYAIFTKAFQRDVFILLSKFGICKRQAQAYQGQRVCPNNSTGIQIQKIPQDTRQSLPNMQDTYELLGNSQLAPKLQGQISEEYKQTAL

T1 sequence (P16473 21-764): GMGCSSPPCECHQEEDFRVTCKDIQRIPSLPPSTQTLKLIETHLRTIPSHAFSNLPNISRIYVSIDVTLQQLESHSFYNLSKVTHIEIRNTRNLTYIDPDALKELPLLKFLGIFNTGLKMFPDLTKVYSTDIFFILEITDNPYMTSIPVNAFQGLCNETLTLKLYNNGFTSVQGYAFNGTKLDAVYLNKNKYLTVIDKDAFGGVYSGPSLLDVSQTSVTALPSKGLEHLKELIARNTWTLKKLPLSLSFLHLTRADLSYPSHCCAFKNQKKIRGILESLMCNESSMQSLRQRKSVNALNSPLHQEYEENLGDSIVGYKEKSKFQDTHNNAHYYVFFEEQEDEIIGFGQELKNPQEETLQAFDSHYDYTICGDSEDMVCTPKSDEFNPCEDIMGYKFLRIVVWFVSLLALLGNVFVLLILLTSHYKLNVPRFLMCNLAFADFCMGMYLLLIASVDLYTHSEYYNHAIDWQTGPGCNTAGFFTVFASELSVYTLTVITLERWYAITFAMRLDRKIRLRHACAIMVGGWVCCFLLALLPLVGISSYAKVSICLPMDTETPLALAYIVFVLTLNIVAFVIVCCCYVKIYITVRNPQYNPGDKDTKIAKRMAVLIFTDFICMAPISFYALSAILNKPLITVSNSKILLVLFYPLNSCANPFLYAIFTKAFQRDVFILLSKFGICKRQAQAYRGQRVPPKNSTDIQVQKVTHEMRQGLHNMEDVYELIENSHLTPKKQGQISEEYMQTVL

Structure (SMILES): CC(C)(C)OC(=O)Nc1ccc(-c2cccnc2CCC(N)=O)c(Cc2ncccc2F)c1F [Example F-2, tert-Butyl (4-(2-(3-amino-3-oxopropyl)pyridin-3-yl)-2-fluoro-3-((3-fluoropyridin-2-yl)methyl)phenyl)carbamate]
- IC50 (human TSHR): 0.3 to 30 µM

Structure (SMILES): C[C@@H](OC(=O)Nc1ccc(-c2cccnc2CCC(N)=O)c(Cc2ncccc2F)c1F)C1CC1 [Example F-3, (R)-1-Cyclopropylethyl (4-(2-(3-amino-3-oxopropyl)pyridin-3-yl)-2-fluoro-3-((3-fluoropyridin-2-yl)methyl)phenyl)carbamate]
- IC50 (human TSHR): < 0.3 µM

Structure (SMILES): CC(C)(C)OC(=O)Nc1ccc(-c2cccnc2CNC(N)=O)c(CN2CCOCC2)c1F [Example F-4, tert-Butyl (2-fluoro-3-(morpholinomethyl)-4-(2-(ureidomethyl)pyridin-3-yl)phenyl)carbamate]
- IC50 (human TSHR): 0.3 to 30 µM

Structure (SMILES): C[C@H]1CN(Cc2c(-c3cccnc3CNC(N)=O)ccc(NC(=O)OC(C)(C)C)c2F)CCO1 [Example F-5, tert-Butyl (S)-(2-fluoro-3-((2-methylmorpholino)methyl)-4-(2-(ureidomethyl)pyridin-3-yl)phenyl)carbamate]
- IC50 (human TSHR): > 30 µM

Structure (SMILES): CC(C)(C)OC(=O)Nc1ccc(-c2cccnc2CNC(N)=O)c(CN2CCCC(F)(F)C2)c1F [Example F-6, tert-Butyl (3-((3,3-difluoropiperidin-1-yl)methyl)-2-fluoro-4-(2-(ureidomethyl)pyridin-3-yl)phenyl)carbamate]
- IC50 (human TSHR): 0.3 to 30 µM

Structure (SMILES): CC(C)(C)OC(=O)Nc1ccc(-c2cccnc2CNC(N)=O)c(CN2CC3CCC(C2)O3)c1F [Example F-7, tert-Butyl (3-((8-oxa-3-azabicyclo[3.2.1]octan-3-yl)methyl)-2-fluoro-4-(2-(ureidomethyl)pyridin-3-yl)phenyl)carbamate]
- IC50 (human TSHR): 0.3 to 30 µM

Structure (SMILES): CC(C)(C)OC(=O)Nc1ccc(-c2cccnc2CNC(N)=O)c(C(=O)N2CCOCC2)c1F [Example F-8, tert-Butyl (2-fluoro-3-(morpholine-4-carbonyl)-4-(2-(ureidomethyl)pyridin-3-yl)phenyl)carbamate]
- IC50 (human TSHR): > 30 µM

Structure (SMILES): CC(C)(C)OC(=O)Nc1ccc(-c2cccnc2CNC(N)=O)c(CC2CC2)c1F [Example F-9, tert-Butyl (3-(cyclopropylmethyl)-2-fluoro-4-(2-(ureidomethyl)pyridin-3-yl)phenyl)carbamate]
- IC50 (human TSHR): 0.3 to 30 µM

Structure (SMILES): CC1(C(=O)Nc2ccc(-c3cccnc3CNC(N)=O)c(Cc3ccccc3F)c2F)CC1 [Example G-1, N-(2-Fluoro-3-(2-fluorobenzyl)-4-(2-(ureidomethyl)pyridin-3-yl)phenyl)-1-methylcyclopropane-1-carboxamide]
- IC50 (human TSHR): 0.3 to 30 µM

Structure (SMILES): CC(C)C(=O)Nc1ccc(-c2cccnc2CNC(N)=O)c(Cc2ccccc2F)c1F [Example G-2, N-(2-Fluoro-3-(2-fluorobenzyl)-4-(2-(ureidomethyl)pyridin-3-yl)phenyl)isobutylamide]
- IC50 (human TSHR): 0.3 to 30 µM

Structure (SMILES): NC(=O)NCc1ncccc1-c1ccc(NC(=O)C2CC2)c(F)c1Cc1ccccc1F [Example G-3, N-(2-Fluoro-3-(2-fluorobenzyl)-4-(2-(ureidomethyl)pyridin-3-yl)phenyl)cyclopropanecarboxamide]
- IC50 (human TSHR): 0.3 to 30 µM

Structure (SMILES): NC(=O)NCc1ncccc1-c1ccc(NC(=O)C2CC(F)(F)C2)c(F)c1Cc1ccccc1F [Example G-4, 3,3-Difluoro-N-(2-fluoro-3-(2-fluorobenzyl)-4-(2-(ureidomethyl)pyridin-3-yl)phenyl)cyclobutane-1-carboxamide]
- IC50 (human TSHR): < 0.3 µM

Structure (SMILES): NC(=O)NCc1ncccc1-c1ccc(NC(=O)C2CCCO2)c(F)c1Cc1ccccc1F (centres unmarked) [Example G-5]
- IC50 (human TSHR): 0.3 to 30 µM

Structure (SMILES): NC(=O)NCc1ncccc1-c1ccc(NC(=O)N2CCCC2)c(F)c1Cc1ccccc1F [Example G-6]
- IC50 (human TSHR): 0.3 to 30 µM

Structure (SMILES): NC(=O)NCc1ncccc1-c1ccc(NC(=O)N2CC3(CCC3)C2)c(F)c1Cc1ccccc1F [Example G-7, N-(2-Fluoro-3-(2-fluorobenzyl)-4-(2-(ureidomethyl)pyridin-3-yl)phenyl)-2-azaspiro[3.3]heptane-2-carboxamide]
- IC50 (human TSHR): < 0.3 µM

Structure (SMILES): NC(=O)NCc1ncccc1-c1ccc(NC(=O)NC2CCCC2)c(F)c1Cc1ccccc1F [Example G-8, 1-Cyclopentyl-3-(2-fluoro-3-(2-fluorobenzyl)-4-(2-(ureidomethyl)pyridin-3-yl)phenyl)urea]
- IC50 (human TSHR): < 0.3 µM

Structure (SMILES): CON(C(=O)Nc1ccc(-c2cccnc2CNC(N)=O)c(Cc2ccccc2F)c1F)C1CCCC1 [Example G-9, 1-Cyclopentyl-3-(2-fluoro-3-(2-fluorobenzyl)-4-(2-(ureidomethyl)pyridin-3-yl)phenyl)-1-methoxyurea]
- IC50 (human TSHR): 0.3 to 30 µM

Structure (SMILES): CC(C)(C)OC(=O)Nc1ccc(-c2nccnc2CCC(N)=O)c(Cc2ccccc2)c1F [Example H-1, tert-Butyl (4-(3-(3-amino-3-oxopropyl)pyrazin-2-yl)-3-benzyl-2-fluorophenyl)carbamate]
- IC50 (human TSHR): 0.3 to 30 µM

Structure (SMILES): COc1ccc(C2Nc3ccccc3C(=O)N2Cc2ccco2)cc1COc1c(C)cc(NC(C)=O)cc1C (centres unmarked) [NCGC00242364]
- blood T4 concentration (TSHR; TSH-releasing hormone (TRH)-treated mice): blood T4 concentration lowering effect
- blood T4 concentration (TSHR; thyroid stimulating antibody M22-treated mice): blood T4 concentration lowering effect
